In US8329645B2, “Polymyxin derivatives and uses thereof” (priority 2008, dated 2012):

Legend:
[1] = tested on: E. cloacae F230; experiment: E-test MIC with or without NAB7061 (4 μg/ml), Mueller-Hinton agar; assay type: cell-based, Enterobacter cloacae
Method in brief: (§1)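 Read-out: MIC taken from the E-strip scale. Testing followed the manufacturer's instructions for strip use.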

[2] = tested on: E. cloacae F232; experiment: as above; assay type: cell-based, Enterobacter cloacae
Method in brief: as §1

[3] = tested on: E. cloacae CCUG52947; experiment: as above; assay type: cell-based, Enterobacter cloacae
Method in brief: as §1

[4] = tested on: E. cloacae ATCC23355; experiment: as above; assay type: cell-based, Enterobacter cloacae
Method in brief: as §1

[5] = tested on: K. pneumoniae CCUG45421; experiment: as above; assay type: cell-based, Klebsiella pneumoniae
Method: (§2) MICs were determined by using E-strips (Biodisk Ltd., Solna, Sweden) according to the manufacturer's instructions.
(§3) The strains originated from ATCC (11 strains), CCUG (11 strains), and NCTC (The National Collection of Type Cultures, Colindale, U.K.; 2 strains). Eight strains (the F-strains) were purchased from Mobidiag Ltd., Helsinki, Finland.

[6] = tested on: K. pneumoniae F144; experiment: as above; assay type: cell-based, Klebsiella pneumoniae
Method: as §2, §3

[7] = tested on: K. pneumoniae F145; experiment: as above; assay type: cell-based, Klebsiella pneumoniae
Method: as §2, §3

[8] = tested on: K. pneumoniae F136; experiment: as above; assay type: cell-based, Klebsiella pneumoniae
Method: as §2, §3

[9] = tested on: Ac. baumannii F264; experiment: as above; assay type: cell-based, Acinetobacter baumannii; details: Ac. baumannii F264
Method: as §2, §3

[10] = tested on: Ac. baumannii ATCC19606; experiment: as above; assay type: cell-based, Acinetobacter baumannii; details: Ac. baumannii ATCC19606
Method: as §2, §3

[11] = tested on: Ac. baumannii F263; experiment: as above; assay type: cell-based, Acinetobacter baumannii; details: Ac. baumannii F263
Method: as §2, §3

[12] = tested on: S. maltophilia ATCC17444; experiment: as above; assay type: cell-based
Method: as §2, §3

[13] = tested on: P. vulgaris ATCC13315; experiment: as above; assay type: cell-based
Method: as §2, §3

[14] = tested on: K. oxytoca CCUG51683; experiment: as above; assay type: cell-based, Klebsiella oxytoca
Method: as §2, §3

[15] = tested on: K. oxytoca ATCC13182; experiment: as above; assay type: cell-based, Klebsiella oxytoca
Method: as §2, §3

[16] = tested on: P. aeruginosa ATCC 27853; experiment: E-test MIC of antibiotics on Mueller Hinton agar containing increasing concentrations of NAB739; assay type: cell-based, Pseudomonas aeruginosa
[17] = tested on: P. aeruginosa CCUG51971; experiment: E-test MIC with or without NAB7061 (4 μg/ml), Mueller-Hinton agar; assay type: cell-based, Pseudomonas aeruginosa
Method: as §2, §3

[18] = tested on: P. aeruginosa F58; experiment: as above; assay type: cell-based, Pseudomonas aeruginosa
Method: as §2, §3

[19] = tested on: P. aeruginosa ATCC27853; experiment: as above; assay type: cell-based, Pseudomonas aeruginosa
Method: as §2, §3

[20] = tested on: E. coli ATCC25922; details: E. coli ATCC25922
Method in brief: as §1

[21] = tested on: K. pneumoniae ATCC13883; details: K. pneumoniae ATCC13883
Method in brief: as §1

[22] = tested on: A. baumannii F264; experiment: E-test MIC of antibiotics on Mueller Hinton agar containing increasing concentrations of NAB739; assay type: cell-based, Acinetobacter baumannii
[23] = tested on: E. coli CCUG41425; experiment: E-test MIC with or without NAB7061 (4 μg/ml), Mueller-Hinton agar; assay type: cell-based, Escherichia coli
Method in brief: as §1

[24] = tested on: E. coli CCUG41427; experiment: as above; assay type: cell-based, Escherichia coli
Method in brief: as §1

[25] = tested on: E. coli CCUG41422; experiment: as above; assay type: cell-based, Escherichia coli
Method in brief: as §1

[26] = tested on: E. coli IH3080; experiment: as above; assay type: cell-based, Escherichia coli
Method in brief: as §1

[27] = tested on: E. coli CCUG41421; experiment: as above; assay type: cell-based, Escherichia coli
Method in brief: as §1

[28] = tested on: E. coli NCTC13351; experiment: as above; assay type: cell-based, Escherichia coli
Method in brief: as §1

[29] = tested on: E. coli CCUG41432; experiment: as above; assay type: cell-based, Escherichia coli
Method in brief: as §1

[30] = tested on: E. coli CCUG41429; experiment: as above; assay type: cell-based, Escherichia coli
Method in brief: as §1

[31] = tested on: E. coli NCTC13353; experiment: as above; assay type: cell-based, Escherichia coli
Method in brief: as §1

[32] = tested on: E. coli CCUG41424; experiment: as above; assay type: cell-based, Escherichia coli
Method in brief: as §1

[33] = tested on: C. freundii ATCC8090; experiment: as above; assay type: cell-based, Citrobacter freundii
Method: as §2, §3

[34] = tested on: A. baumannii ATCC19606; experiment: E-test MIC of antibiotics on Mueller Hinton agar containing increasing concentrations of NAB739; assay type: cell-based, Acinetobacter baumannii
[35] = tested on: E. coli IH3080; experiment: Sensitization to rifampin: growth inhibition around wells on LB plates containing rifampin; assay type: cell-based, Escherichia coli; details: in the absence of the compounds tested
[36] = tested on: P. mirabilis ATCC29906; experiment: E-test MIC with or without NAB7061 (4 μg/ml), Mueller-Hinton agar; assay type: cell-based, Proteus mirabilis
Method: as §2, §3

[37] = tested on: both Acinetobacter strains (ATCC 19606 and F264); experiment: E-test sensitization by NAB739, both strains; assay type: cell-based, Acinetobacter baumannii
[38] = tested on: S. marcescens ATCC8100; experiment: E-test MIC with or without NAB7061 (4 μg/ml), Mueller-Hinton agar; assay type: cell-based, Serratia marcescens
Method: as §2, §3

CO[C@H]1/C=C/O[C@@]2(C)Oc3c(C)c(O)c4c(O)c(c(/C=N/N5CCN(C)CC5)c(O)c4c3C2=O)NC(=O)/C(C)=C\C=C\[C@H](C)[C@H](O)[C@@H](C)[C@@H](O)[C@@H](C)[C@H](OC(C)=O)[C@@H]1C [Rifampin]
MIC of antibiotic in the presence of 4 μg/ml of NAB 7061 [1]: 0.016 to 0.032 µg/mL
Sensitization factor to antibiotic (MIC without / with 4 μg/ml of NAB 7061) [1]: 1500
MIC of antibiotic in the presence of 4 μg/ml of NAB 7061 [2]: 0.023 µg/mL
Sensitization factor to antibiotic (MIC without / with 4 μg/ml of NAB 7061) [2]: 1400
MIC of antibiotic in the presence of 4 μg/ml of NAB 7061 [3]: 0.032 to 0.047 µg/mL
Sensitization factor to antibiotic (MIC without / with 4 μg/ml of NAB 7061) [3]: 500-1000
MIC of antibiotic in the presence of 4 μg/ml of NAB 7061 [4]: 0.008 to 0.016 µg/mL
Sensitization factor to antibiotic (MIC without / with 4 μg/ml of NAB 7061) [4]: 750-1500
MIC of antibiotic in the presence of 4 μg/ml of NAB 7061 [5]: 2 to 3 µg/mL
Sensitization factor to antibiotic (MIC without / with 4 μg/ml of NAB 7061) [5]: 10-20
MIC of antibiotic in the presence of 4 μg/ml of NAB 7061 [6]: 0.19 µg/mL
Sensitization factor to antibiotic (MIC without / with 4 μg/ml of NAB 7061) [6]: >170
MIC of antibiotic in the presence of 4 μg/ml of NAB 7061 [7]: 0.19 to 0.25 µg/mL
Sensitization factor to antibiotic (MIC without / with 4 μg/ml of NAB 7061) [7]: 170
MIC of antibiotic in the presence of 4 μg/ml of NAB 7061 [8]: 0.75 µg/mL
Sensitization factor to antibiotic (MIC without / with 4 μg/ml of NAB 7061) [8]: >43
Sensitization factor to antibiotic (MIC without / with 4 μg/ml of NAB 7061) [9]: 32
Sensitization factor to antibiotic (MIC without / with 4 μg/ml of NAB 7061) [10]: 24-32
MIC of antibiotic in the presence of 4 μg/ml of NAB 7061 [11]: 0.032 to 0.19 µg/mL
MIC of antibiotic in the presence of 4 μg/ml of NAB 7061 [12]: 2 µg/mL
Sensitization factor to antibiotic (MIC without / with 4 μg/ml of NAB 7061) [12]: 4-8
MIC of antibiotic in the presence of 4 μg/ml of NAB 7061 [13]: 1 to 1.5 µg/mL
Sensitization factor to antibiotic (MIC without / with 4 μg/ml of NAB 7061) [13]: <2
MIC of antibiotic in the presence of 4 μg/ml of NAB 7061 [14]: 0.012 to 0.023 µg/mL
Sensitization factor to antibiotic (MIC without / with 4 μg/ml of NAB 7061) [14]: 700-2000
MIC of antibiotic in the presence of 4 μg/ml of NAB 7061 [15]: 0.032 to 0.047 µg/mL
Sensitization factor to antibiotic (MIC without / with 4 μg/ml of NAB 7061) [15]: 680-750
MIC of antibiotic in the presence of NAB739 ([16]; NAB 739 0 μg/ml): 32 µg/mL
MIC of antibiotic in the presence of NAB739 ([16]; NAB 739 0.5 μg/ml): 32 µg/mL
MIC of antibiotic in the presence of NAB739 ([16]; NAB 739 1 μg/ml): 16 µg/mL
MIC of antibiotic in the presence of NAB739 ([16]; NAB 739 2 μg/ml): 4 µg/mL
MIC of antibiotic in the presence of NAB739 ([16]; NAB 739 […]): 32 µg/mL
MIC of antibiotic in the presence of 4 μg/ml of NAB 7061 [17]: >32 µg/mL
Sensitization factor to antibiotic (MIC without / with 4 μg/ml of NAB 7061) [17]: <2
MIC of antibiotic in the presence of 4 μg/ml of NAB 7061 [18]: >32 µg/mL
Sensitization factor to antibiotic (MIC without / with 4 μg/ml of NAB 7061) [18]: <2
MIC of antibiotic in the presence of 4 μg/ml of NAB 7061 [19]: 12 to 16 µg/mL
Sensitization factor to antibiotic (MIC without / with 4 μg/ml of NAB 7061) [19]: 2
MIC of antibiotic in the presence of 4 μg/ml of NAB 7061 [20]: 0.016 to 0.047 µg/mL
Sensitization factor to antibiotic (MIC without / with 4 μg/ml of NAB 7061) [20]: 250-750
Sensitization factor to antibiotic (MIC without / with 4 μg/ml of NAB 7061) [21]: 250-500
MIC of antibiotic in the presence of NAB739 ([22]; NAB 739 0 μg/ml): 12 µg/mL
MIC of antibiotic in the presence of NAB739 ([22]; NAB 739 0.5 μg/ml): 0.094 µg/mL
MIC of antibiotic in the presence of NAB739 ([22]; NAB 739 1 μg/ml): 0.016 µg/mL
MIC of antibiotic in the presence of NAB739 ([22]; NAB 739 […]): 0.38 µg/mL
MIC of antibiotic in the presence of 4 μg/ml of NAB 7061 [23]: 0.016 to 0.023 µg/mL
Sensitization factor to antibiotic (MIC without / with 4 μg/ml of NAB 7061) [23]: 200-260
MIC of antibiotic in the presence of 4 μg/ml of NAB 7061 [24]: 0.032 to 0.064 µg/mL
Sensitization factor to antibiotic (MIC without / with 4 μg/ml of NAB 7061) [24]: 100-250
Sensitization factor to antibiotic (MIC without / with 4 μg/ml of NAB 7061) [25]: 170-256
MIC of antibiotic in the presence of 4 μg/ml of NAB 7061 [26]: 0.023 to 0.047 µg/mL
Sensitization factor to antibiotic (MIC without / with 4 μg/ml of NAB 7061) [26]: 170-350
MIC of antibiotic in the presence of 4 μg/ml of NAB 7061 [27]: 0.032 to 0.064 µg/mL
MIC of antibiotic in the presence of 4 μg/ml of NAB 7061 [28]: 0.032 to 0.047 µg/mL
Sensitization factor to antibiotic (MIC without / with 4 μg/ml of NAB 7061) [28]: 340-500
MIC of antibiotic in the presence of 4 μg/ml of NAB 7061 [29]: 0.032 µg/mL
Sensitization factor to antibiotic (MIC without / with 4 μg/ml of NAB 7061) [29]: 180-250
MIC of antibiotic in the presence of 4 μg/ml of NAB 7061 [30]: 0.032 µg/mL
MIC of antibiotic in the presence of 4 μg/ml of NAB 7061 [31]: 0.064 µg/mL
MIC of antibiotic in the presence of 4 μg/ml of NAB 7061 [32]: 0.064 to 0.094 µg/mL
Sensitization factor to antibiotic (MIC without / with 4 μg/ml of NAB 7061) [32]: 85-94
MIC of antibiotic in the presence of 4 μg/ml of NAB 7061 [33]: 0.023 to 0.032 µg/mL
Sensitization factor to antibiotic (MIC without / with 4 μg/ml of NAB 7061) [33]: 500-1000
MIC of antibiotic in the presence of NAB739 ([34]; NAB 739 0 μg/ml): 4 µg/mL
MIC of antibiotic in the presence of NAB739 ([34]; NAB 739 0.5 μg/ml): 0.047 µg/mL
MIC of antibiotic in the presence of NAB739 ([34]; NAB 739 1 μg/ml): 0.006 µg/mL
concentration of rifampin needed for the inhibitory effect [35]: 10 µg/mL
MIC of antibiotic in the presence of 4 μg/ml of NAB 7061 [36]: 1 to 6 µg/mL
Sensitization factor to antibiotic (MIC without / with 4 μg/ml of NAB 7061) [36]: <2
sensitization factors to antibiotic at NAB739 0.5 μg/ml [37]: 85-128
MIC of antibiotic in the presence of 4 μg/ml of NAB 7061 [38]: 16 µg/mL
Sensitization factor to antibiotic (MIC without / with 4 μg/ml of NAB 7061) [38]: <2
